Experimental data as given in ChEMBL document CHEMBL1201862, “PubChem BioAssay data set” (2004).
Active and inactive are the calls of the source. Cut-off read from the data, not from the text of the source, for most assays here: actives have a measured EC50 and inactives only a lower limit.

Experiments:
[1] = tested on: Vero; assay: viability of Vero cells under compound – cytotoxicity control for flavivirus capping enzyme inhibitors (AID 588742); format: functional; conditions: Chlorocebus sabaeus
[2] = biological target: Genome polyprotein (dengue virus type 2, UniProt P29990); assay: flavivirus cap methylation enzyme inhibition – biochemical, confirmation dose response, primary screen (AID 588689); format: functional
Genome polyprotein, sequence (P29990 2492-3391 limits assumed): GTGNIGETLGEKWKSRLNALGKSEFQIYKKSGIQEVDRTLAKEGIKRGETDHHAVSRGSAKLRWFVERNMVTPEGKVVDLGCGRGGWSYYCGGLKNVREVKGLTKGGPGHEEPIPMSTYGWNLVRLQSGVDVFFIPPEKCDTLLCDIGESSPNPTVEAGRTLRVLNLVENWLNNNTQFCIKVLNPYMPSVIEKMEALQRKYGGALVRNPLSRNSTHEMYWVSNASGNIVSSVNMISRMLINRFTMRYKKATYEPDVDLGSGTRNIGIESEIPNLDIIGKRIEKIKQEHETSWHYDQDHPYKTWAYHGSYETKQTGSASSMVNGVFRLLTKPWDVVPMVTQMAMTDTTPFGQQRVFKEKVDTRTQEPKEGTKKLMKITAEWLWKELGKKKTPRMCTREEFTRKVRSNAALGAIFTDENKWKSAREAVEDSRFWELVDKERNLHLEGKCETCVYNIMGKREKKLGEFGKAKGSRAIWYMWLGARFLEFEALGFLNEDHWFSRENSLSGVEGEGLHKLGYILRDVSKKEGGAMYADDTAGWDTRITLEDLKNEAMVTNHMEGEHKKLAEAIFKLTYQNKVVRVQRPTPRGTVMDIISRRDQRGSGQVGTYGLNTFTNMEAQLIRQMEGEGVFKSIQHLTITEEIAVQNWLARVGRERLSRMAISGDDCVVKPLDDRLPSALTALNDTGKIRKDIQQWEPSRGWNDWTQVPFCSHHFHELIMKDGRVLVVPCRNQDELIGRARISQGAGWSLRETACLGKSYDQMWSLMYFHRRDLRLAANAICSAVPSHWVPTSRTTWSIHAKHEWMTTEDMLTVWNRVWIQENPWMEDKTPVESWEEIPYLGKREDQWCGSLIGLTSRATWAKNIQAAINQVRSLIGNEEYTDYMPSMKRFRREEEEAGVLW

[3] = biological target: T1, Long-chain-fatty-acid--AMP ligase FadD28 (Mycobacterium tuberculosis, UniProt P9WQ59); assay: Fluorescence polarization aasay to screen for inhibitors that compete for the binding of FadD28 to a bisubstrate Measured in Biochemical System Using Plate Reader - 2147-01_Inhibitor_Dose_CherryPick_Activity.; format: functional, Mycobacterium tuberculosis H37Rv
T1 sequence (P9WQ59 whole entry): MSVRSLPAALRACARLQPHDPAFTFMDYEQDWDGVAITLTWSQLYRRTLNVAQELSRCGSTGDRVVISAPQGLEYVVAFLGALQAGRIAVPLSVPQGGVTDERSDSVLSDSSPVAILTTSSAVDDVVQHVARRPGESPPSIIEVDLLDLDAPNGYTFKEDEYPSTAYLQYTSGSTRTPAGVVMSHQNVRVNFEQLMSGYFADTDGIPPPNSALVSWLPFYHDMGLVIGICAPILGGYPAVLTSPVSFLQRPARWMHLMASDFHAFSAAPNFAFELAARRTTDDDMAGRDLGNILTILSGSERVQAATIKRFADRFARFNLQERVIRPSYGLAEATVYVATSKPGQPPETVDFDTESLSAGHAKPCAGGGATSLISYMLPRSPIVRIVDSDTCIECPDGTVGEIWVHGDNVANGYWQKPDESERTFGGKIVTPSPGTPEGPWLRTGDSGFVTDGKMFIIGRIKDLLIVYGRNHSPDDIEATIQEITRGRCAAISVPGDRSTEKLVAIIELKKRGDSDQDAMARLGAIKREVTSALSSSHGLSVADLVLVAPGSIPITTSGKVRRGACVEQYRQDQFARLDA

[4] = tested on: BJ; assay: BJ-TERT fibroblast viability loss – cell-based, RAS-independent, luminescence, dose response (AID 1933); format: functional; conditions: Homo sapiens
[5] = tested on: BJ; assay: cells; format: functional, cell-based; conditions: Homo sapiens, read-out: EC50
[6] = tested on: BJ; assay: BJ-TERT-LT-ST fibroblast viability loss – cell-based, RAS-independent, luminescence, dose response (AID 1935); format: functional; conditions: Homo sapiens;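 note: BJ fibroblasts immortalized with TERT plus LT and ST oncogenes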
[7] = DRD fibroblast viability loss – cell-based, non-viral oncogenic, luminescence, dose response (AID 1934); format: functional; conditions: Homo sapiens
[8] = tested on: BJ; assay: growth inhibition of engineered Ras-driven BJ cells – cell-based, alamar blue fluorescence, cherrypicked samples, dose response (AID 2631); format: functional; conditions: Homo sapiens;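 note: confirmatory dose-response assay in RAS-dependent BJ fibroblasts engineered with TERT, LT and ST, with cytotoxicity read by fluorescence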
[9] = Luminescence Cell-Based Dose Response HTS to Identify Inhibitors of 5'UTR Stem-Loop Driven Prion Protein mRNA Translation in H4 Neuroglioblastoma Cells. [Related pubchem assays: 1827 (Project Summary), 1813 (Primary HTS)]; format: functional
[10] = alpha-synuclein stem-loop luciferase translation blockers – H4 neuroglioma cells, luminescence, confirmation (AID 1988); format: functional, cell-based
[11] = biological target: DNA (cytosine-5)-methyltransferase 1 (Homo sapiens, UniProt P26358); assay: inhibition of DNA methylation by DNMT1 – biochemical, fluorescent molecular beacon, confirmation (AID 602386); format: functional
DNA (cytosine-5)-methyltransferase 1, sequence (P26358 whole entry): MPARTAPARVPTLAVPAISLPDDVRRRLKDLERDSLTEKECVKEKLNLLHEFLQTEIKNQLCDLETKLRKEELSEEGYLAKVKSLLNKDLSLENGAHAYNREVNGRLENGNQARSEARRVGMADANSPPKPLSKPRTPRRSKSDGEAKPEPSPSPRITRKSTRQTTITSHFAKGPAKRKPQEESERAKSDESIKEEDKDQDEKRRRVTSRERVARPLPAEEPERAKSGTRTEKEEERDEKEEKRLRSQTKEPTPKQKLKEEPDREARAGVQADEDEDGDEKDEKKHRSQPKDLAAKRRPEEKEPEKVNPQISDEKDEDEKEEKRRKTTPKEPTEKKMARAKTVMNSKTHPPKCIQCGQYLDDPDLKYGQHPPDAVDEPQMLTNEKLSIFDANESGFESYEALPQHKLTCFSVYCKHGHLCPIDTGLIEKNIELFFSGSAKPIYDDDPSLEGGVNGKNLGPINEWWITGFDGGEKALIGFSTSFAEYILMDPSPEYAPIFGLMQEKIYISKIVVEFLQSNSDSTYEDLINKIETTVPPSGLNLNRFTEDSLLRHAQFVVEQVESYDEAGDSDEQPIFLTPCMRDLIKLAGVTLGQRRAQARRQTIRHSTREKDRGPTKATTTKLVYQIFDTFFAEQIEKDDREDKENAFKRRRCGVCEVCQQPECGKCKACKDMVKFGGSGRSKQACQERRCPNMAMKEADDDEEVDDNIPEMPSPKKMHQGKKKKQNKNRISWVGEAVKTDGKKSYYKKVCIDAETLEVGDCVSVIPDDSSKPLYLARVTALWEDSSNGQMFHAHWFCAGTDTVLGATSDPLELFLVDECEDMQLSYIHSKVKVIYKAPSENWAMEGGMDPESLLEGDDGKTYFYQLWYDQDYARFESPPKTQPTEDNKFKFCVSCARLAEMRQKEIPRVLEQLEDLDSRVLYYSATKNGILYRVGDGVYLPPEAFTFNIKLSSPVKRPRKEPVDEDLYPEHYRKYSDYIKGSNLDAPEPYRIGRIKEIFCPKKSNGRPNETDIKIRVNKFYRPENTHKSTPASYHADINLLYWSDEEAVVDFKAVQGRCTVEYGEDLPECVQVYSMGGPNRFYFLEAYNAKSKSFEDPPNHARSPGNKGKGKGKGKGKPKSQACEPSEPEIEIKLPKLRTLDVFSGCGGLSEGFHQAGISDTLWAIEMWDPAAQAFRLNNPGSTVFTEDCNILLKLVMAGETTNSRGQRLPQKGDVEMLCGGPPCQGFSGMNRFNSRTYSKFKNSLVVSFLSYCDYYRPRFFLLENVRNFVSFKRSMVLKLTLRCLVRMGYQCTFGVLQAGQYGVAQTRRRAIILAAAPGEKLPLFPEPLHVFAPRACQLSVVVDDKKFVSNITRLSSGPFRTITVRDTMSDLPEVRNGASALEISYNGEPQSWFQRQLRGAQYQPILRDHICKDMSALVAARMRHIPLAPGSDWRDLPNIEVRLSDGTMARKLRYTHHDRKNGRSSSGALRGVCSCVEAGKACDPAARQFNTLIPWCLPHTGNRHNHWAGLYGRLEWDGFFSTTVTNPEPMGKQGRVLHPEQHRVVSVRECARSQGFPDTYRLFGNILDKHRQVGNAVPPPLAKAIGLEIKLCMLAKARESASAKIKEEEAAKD

[12] = biological target: T2, DNA repair protein RAD52 homolog (Homo sapiens, UniProt P43351); format: functional, biochemical
T2 sequence (P43351 whole entry): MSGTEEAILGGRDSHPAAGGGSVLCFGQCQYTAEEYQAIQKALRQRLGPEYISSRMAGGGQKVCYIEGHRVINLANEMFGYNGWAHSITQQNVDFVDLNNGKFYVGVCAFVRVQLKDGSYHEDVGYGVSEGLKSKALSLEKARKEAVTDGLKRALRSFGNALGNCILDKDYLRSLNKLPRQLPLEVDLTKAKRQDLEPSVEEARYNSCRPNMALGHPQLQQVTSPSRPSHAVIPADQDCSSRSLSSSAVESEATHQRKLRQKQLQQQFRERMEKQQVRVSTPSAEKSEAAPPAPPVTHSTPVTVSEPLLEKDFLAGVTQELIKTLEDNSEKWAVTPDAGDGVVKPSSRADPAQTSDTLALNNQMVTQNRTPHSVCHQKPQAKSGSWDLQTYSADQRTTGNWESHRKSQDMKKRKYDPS

With `O=C(Nc1sc2c(c1C(=O)O)CCCC2)c1cccc(Cl)c1` the CC50 [1] was > 40 µM (active), the IC50 [2] was 71.8 µM (active) and the AC50 [3] was > 100 µM (inactive).
For `Cc1ccc(/C=C2\SC(=S)N(CC3CCCO3)C2=O)o1` (configuration not stated), the EC50 [4] was 35.8 µM (inconclusive), the EC50 [5] was > 150 µM (not active) and the EC50 [6] was > 150 µM (not active). The EC50 [7] was 16.4 µM (active) and the EC50 [8] was > 133 µM (inactive).
With `CC1(C)CC(N=c2cc(-c3ccccc3)oc3ccc(Cl)cc23)CC(C)(C)N1` the EC50 [9] was > 120 µM (not active), the EC50 [10] was > 60 µM (not active) and the IC50 [11] was > 99 µM (inactive). For the same molecule, the AC50 [12] was 0.689 µM (active).
